Values quoted from earlier work in patent publication US12708613B2, “Methods for improving physical exercise performance” (NOMIO NUTRITION AB, priority 2020, dated 2026).

System: mice

C[S+]([O-])CCCCN=C=S (centres unmarked) [sulforaphane, 1-Isothiocyanato-4-(methanesulfinyl)butane]
effect on glucose levels (mice models): no effect
endurance (mice, injected (intraperitoneally, 25 mg/kg body weight)): improved endurance
